Measured values: US4999444A, “Novel neutral mixed ligand platinum(II) and platinum(IV) complexes” (Warner-Lambert Co., priority 1989, dated 1991)
Like-named read-outs stand apart in the source and are kept apart here.

Assays:
[1] = system: L1210S; experiment: In vitro cytotoxicity (ID50, 72 h growth inhibition), L1210S; format: cell-based, murine
Procedure: (§1) ID50 values are the concentration of complex required to inhibit the in vitro growth of treated cells to a level of 50% of that for untreated cells over a 72-hour period. The cell lines are suspended in appropriate media at a concentration which results in the cells remaining in log phase growth throughout the treatment period. Serially diluted drug is added to duplicate wells containing the cell growth. After 72 hours of incubation of the cell lines in 5% CO2, the cells are counted and the ID50 values determined.

[2] = system: L1210PtR4; experiment: In vitro cytotoxicity (ID50, 72 h growth inhibition), L1210PtR4; format: cell-based, murine; details: for ID50: in vitro, 72 h
Procedure: as §1
(§2) Resistance ratio values shown in Table 1 were calculated by dividing the ID50 values against the resistant cell lines by the ID50 values against the normal cell lines. The resistance ratio values shown in the table indicate a measure of the degree of resistance of the cell line to a particular drug.

[3] = system: L1210DDP5; experiment: In vitro cytotoxicity (ID50, 72 h growth inhibition), L1210DDP5; format: cell-based, murine; details: for ID50: in vitro, 72 h
Procedure: as §1, §2

[4] = system: L1210DACH; experiment: In vitro cytotoxicity (ID50, 72 h growth inhibition), L1210DACH (Pt(DACH)Cl2-resistant L1210); format: cell-based, murine; details: for ID50: in vitro, 72 h
Procedure: as §1, §2

[5] = system: P388S; experiment: In vitro cytotoxicity (ID50, 72 h growth inhibition), P388S; format: cell-based, murine
Procedure: as §1

[6] = system: P388Pt4; experiment: In vitro cytotoxicity (ID50, 72 h growth inhibition), P388Pt4; format: cell-based, murine; details: for ID50: in vitro, 72 h
Procedure: as §1, §2

[7] = system: L-1210 Leukemia; experiment: In vivo antitumor activity in mice, L-1210 Leukemia; design: species or system mice (murine leukemia); details: IP, Days 3, 7, 11; for % T/C: best responses
Source text: (§3) The screening tests employing these cell lines are described in Geran et al., "Protocols for Screening Chemical Agents and Natural Products Against Animal Tumors and Other Biological Systems," Cancer Chemotherapy Reports, Part 3, Vol. 3, No. 2, pages 1-85 (1972). The L1210 and P388 screening methods have been cited as the best tools for predicting clinical utility of drugs in the treatment of human solid tumors as well as human leukemias and lymphomas (Venditti, "Relevance of Transplantable Animal-Tumor Systems to the Selection of New Agents for Clinical Trial," Pharmacological Basis of Cancer Chemotherapy, […] Pub. Co. (1975)).
In Table 2, the ratio of median survival time of laboratory mice which had been treated with the test compound to untreated control animals is expressed as a percentage (%T/C values). […] Data for the prior art complex cisplatin is included for comparison.
^a Inoculum: 10,000 cells (IP)
^b Schedule: Days 3, 7, 11

[8] = system: L-1210/Pt Leukemia (Cisplatin Resistant); experiment: In vivo antitumor activity in mice, L-1210/Pt Leukemia (Cisplatin Resistant); design: species or system mice (murine leukemia); details: IP, Days 3, 7, 11; for % T/C: best responses
[9] = system: P-388/Pt (Cisplatin Resistant); experiment: In vivo antitumor activity, P-388 (Lymphocytic Leukemia), P-388/Pt (Cisplatin Resistant); design: species or system mice (murine leukemia); details: IP, Days 1, 5, 9; for % T/C: best responses
Source text: as §3
^g Schedule: Days 1, 5, 9

[10] = system: L1210 and P388 murine leukemia cell lines; experiment: Antitumor activity in L1210 and P388 murine leukemia, in vitro and in vivo; details: in vitro and in vivo test results
Procedure: as §1, §3
In Table 2, the ratio of median survival time of laboratory mice which had been treated with the test compound to untreated control animals is expressed as a percentage (%T/C values). […]

[11] = system: parent L1210 and P388 leukemia cell lines; experiment: In vivo activity against parent L1210 and P388 leukemia; design: species or system mice (murine leukemia)
Source text: as §3
(§4) In Table 2, the ratio of median survival time of laboratory mice which had been treated with the test compound to untreated control animals is expressed as a percentage (%T/C values). Laboratory mice were implanted intraperitonealy with the L1210 murine leukemia cell line on Day 0 and treated with intraperitoneal injections of representative platinum complexes of the present invention on Days 3 and 7 at the dosages indicated. Data for the prior art complex cisplatin is included for comparison.

[12] = system: cisplatin-resistant cells; experiment: Activity against cisplatin-resistant cells in vitro and in vivo; design: species or system murine
Procedure: as §1, §2, §4

[13] = first pair of lines, 5.0 mg/kg/injection
[14] = second pair of lines, 5.0 mg/kg/injection
[15] = ID50 resistant line / ID50 normal line, 4320 min
[16] = first pair of lines, 3.7 mg/kg/injection
[17] = second pair of lines, 3.7 mg/kg/injection

NC1CCCCC1N.[Cl][Pt][Cl] (stereo not drawn) [[Pt(trans-l-DACH)Cl2], [SP-4-2-(1R-trans)]-dichloro(1,2-cyclohexanediamine-N,N')platinum, reference compound]
ID50 [1]: 0.059 µg/mL
ID50 [2]: 0.161 µg/mL
ID50 [3]: 0.164 µg/mL
cross resistance to Pt(DACH)Cl2-resistant L1210 cells in culture ([4]; 4320 min): 77 fold
ID50 ([4]; L1210DACH): 4.57 µg/mL
ID50 [5]: 0.077 µg/mL
ID50 [6]: 0.83 µg/mL

N.N.[Cl][Pt][Cl] [Cisplatin, cis-diaminedichloroplatinum(II), reference compound]
ID50 [1]: 0.375 µg/mL
ID50 [2]: 7.84 µg/mL
ID50 [3]: 4.11 µg/mL
ID50 ([4]; L1210DACH): 0.52 µg/mL
ID50 [5]: 0.128 µg/mL
ID50 [6]: 10.0 µg/mL
60 Day Survivors ([7]; 4.0 mg/kg/injection): 1/6
Log10 Kill Gross ([7]; 4.0 mg/kg/injection): 9.4
Log10 Kill Net ([7]; 4.0 mg/kg/injection): 0.9
MLS (median life span) ([7]; 4.0 mg/kg/injection): 19.5 days
Weight Change ([7]; 4.0 mg/kg/injection): 1.0 grams
% T/C ([7]; 4.0 mg/kg/injection): 184%
60 Day Survivors ([7]; 6.0 mg/kg/injection): 1/6
Log10 Kill Gross ([7]; 6.0 mg/kg/injection): 8.3
Log10 Kill Net ([7]; 6.0 mg/kg/injection): -0.1
MLS (median life span) ([7]; 6.0 mg/kg/injection): 18.5 days
Weight Change ([7]; 6.0 mg/kg/injection): -1.9 grams
% T/C ([7]; 6.0 mg/kg/injection): 175%
60 Day Survivors ([8]; 4.0 mg/kg/injection): 0/6
Log10 Kill Gross ([8]; 4.0 mg/kg/injection): 0.7
Log10 Kill Net ([8]; 4.0 mg/kg/injection): -2.5
MLS (median life span) ([8]; 4.0 mg/kg/injection): 11.1 days
% T/C ([8]; 4.0 mg/kg/injection): 109%
60 Day Survivors ([8]; 6.0 mg/kg/injection): 0/6
Log10 Kill Gross ([8]; 6.0 mg/kg/injection): 1.5
Log10 Kill Net ([8]; 6.0 mg/kg/injection): -2.4
MLS (median life span) ([8]; 6.0 mg/kg/injection): 12.0 days
Weight Change ([8]; 6.0 mg/kg/injection): -3.7 grams
% T/C ([8]; 6.0 mg/kg/injection): 118%
Log10 Kill Net [9, 13]: 6.8
% T/C [9, 13]: 261%
Log10 Kill Net [9, 14]: -1.5
% T/C [9, 14]: 132%

[Cl][Pt]1([Cl])[NH]C2CCC(CC2)[NH]1 [Example 1, [SP-4-2-(c-is)]-Dichloro(1,4-cyclohexanediamine-N,N')-platinum]
ID50 [1]: 0.248 µg/mL
Fold resistance (resistance ratio) [2, 15]: 4.9 fold
ID50 [2]: 1.21 µg/mL
Fold resistance (resistance ratio) [3, 15]: 2.7 fold
ID50 [3]: 0.663 µg/mL
cross resistance to Pt(DACH)Cl2-resistant L1210 cells in culture [4]: four
Fold resistance (resistance ratio) ([4]; ID50 resistant line / ID50 normal line, L1210DACH, 4320 min): 4.3 fold
ID50 ([4]; L1210DACH): 1.08 µg/mL
ID50 [5]: 0.047 µg/mL
Fold resistance (resistance ratio) [6, 15]: 30 fold
ID50 [6]: 1.43 µg/mL
60 Day Survivors ([7]; 0.8 mg/kg/injection): 0/6
Log10 Kill Gross ([7]; 0.8 mg/kg/injection): 3.4
Log10 Kill Net ([7]; 0.8 mg/kg/injection): -1.5
MLS (median life span) ([7]; 0.8 mg/kg/injection): 13.0 days
% T/C ([7]; 0.8 mg/kg/injection): 130%
60 Day Survivors ([7]; 1.5 mg/kg/injection): 0/6
Log10 Kill Gross ([7]; 1.5 mg/kg/injection): 13.1
Log10 Kill Net ([7]; 1.5 mg/kg/injection): 4.6
MLS (median life span) ([7]; 1.5 mg/kg/injection): 23.0 days
% T/C ([7]; 1.5 mg/kg/injection): 217%
60 Day Survivors ([7]; 3.0 mg/kg/injection): 1/6
Log10 Kill Gross ([7]; 3.0 mg/kg/injection): 11.5
Log10 Kill Net ([7]; 3.0 mg/kg/injection): 3.1
MLS (median life span) ([7]; 3.0 mg/kg/injection): 21.5 days
% T/C ([7]; 3.0 mg/kg/injection): 203%
60 Day Survivors ([7]; 6.3 mg/kg/injection): 0/6
Log10 Kill Gross ([7]; 6.3 mg/kg/injection): 0.1
Log10 Kill Net ([7]; 6.3 mg/kg/injection): -1.9
MLS (median life span) ([7]; 6.3 mg/kg/injection): 10.7 days
% T/C ([7]; 6.3 mg/kg/injection): 101%
60 Day Survivors ([8]; 0.8 mg/kg/injection): 0/6
Log10 Kill Gross ([8]; 0.8 mg/kg/injection): 2.1
Log10 Kill Net ([8]; 0.8 mg/kg/injection): -2.2
MLS (median life span) ([8]; 0.8 mg/kg/injection): 12.8 days
% T/C ([8]; 0.8 mg/kg/injection): 126%
60 Day Survivors ([8]; 1.5 mg/kg/injection): 0/6
Log10 Kill Gross ([8]; 1.5 mg/kg/injection): 4.5
Log10 Kill Net ([8]; 1.5 mg/kg/injection): -1.7
MLS (median life span) ([8]; 1.5 mg/kg/injection): 15.7 days
% T/C ([8]; 1.5 mg/kg/injection): 154%
60 Day Survivors ([8]; 3.0 mg/kg/injection): 2/6
Log10 Kill Gross ([8]; 3.0 mg/kg/injection): 5.5
Log10 Kill Net ([8]; 3.0 mg/kg/injection): -1.0
MLS (median life span) ([8]; 3.0 mg/kg/injection): 17.0 days
% T/C ([8]; 3.0 mg/kg/injection): 167%
60 Day Survivors ([8]; 6.3 mg/kg/injection): 0/6
Log10 Kill Gross ([8]; 6.3 mg/kg/injection): 0.1
Log10 Kill Net ([8]; 6.3 mg/kg/injection): -2.7
MLS (median life span) ([8]; 6.3 mg/kg/injection): 10.3 days
% T/C ([8]; 6.3 mg/kg/injection): 101%
Log10 Kill Net [9, 16]: 5.4
% T/C [9, 16]: 234%
Log10 Kill Net [9, 17]: 1.9
% T/C [9, 17]: 177%
antitumor activity, potency and response vs cisplatin [10]: superior to cisplatin both in potency and response
effectiveness against parent L1210 and P388 leukemia in vivo vs cisplatin [11]: equally effective or superior to cisplatin
cross resistance to cisplatin [12]: some degree of cross resistance to cisplatin
effectiveness against cisplatin-resistant cells vs cisplatin [12]: more effective than cisplatin
